≈ marks a conversion by molar mass, not a printed value.
Legend:
Format in all cases: cell-based
Proteus mirabilis TB-617 = assay: MIC by agar dilution method, Proteus mirabilis TB-617; details: TB617, P. mirabilis TB-617 (not marked as resistant), 10^6 CFU/ml, 37° C., 18 to 20 hours, read-out: Minimum Inhibitory Concentration (MIC)
Proteus vulgaris TB-615 = assay: MIC by agar dilution method, Proteus vulgaris TB-615; details: TB615, P. vulgaris TB-615, tobramycin resistant strain, 10^6 CFU/ml, 37° C., 18 to 20 hours, read-out: Minimum Inhibitory Concentration (MIC)
[1] = test system: Pseudomonas aeruginosa TB-151; assay: MIC by agar dilution method, Pseudomonas aeruginosa TB-151; details: TB151, P. aeruginosa TB-151, tobramycin resistant strain, 10^6 CFU/ml, 37° C., 18 to 20 hours, read-out: Minimum Inhibitory Concentration (MIC)

| Structure (SMILES) | MIC (Proteus mirabilis TB-617) [µg/mL] | MIC (Proteus vulgaris TB-615) [µg/mL] | MIC [1] [µg/mL] |
| --- | --- | --- | --- |
| NC[C@H]1O[C@H](O[C@H]2[C@H](O)[C@@H](O[C@H]3O[C@H](CO)[C@@H](O)[C@H](N)[C@H]3O)[C@H](N)C[C@@H]2N)[C@H](N)C[C@@H]1O [TOB, tobramycin, reference compound] | 6.2 (≈ 13.3 µM) | 50 (≈ 107 µM) | 50 (≈ 107 µM) |
| NC[C@H]1O[C@H](O[C@H]2[C@H](O)[C@@H](O[C@H]3O[C@H](CO)[C@@H](O)[C@H](N)[C@H]3O)[C@H](NC3=NCC[C@@H]3O)C[C@@H]2N)[C@H](N)C[C@@H]1O [[A], 1N-[(S)(-)-3-hydroxy-1-pyrrolin-2-yl]tobramycin] | 3.1 (≈ 5.63 µM) | 25 (≈ 45.4 µM) | 25 (≈ 45.4 µM) |
| NC[C@H]1O[C@H](O[C@H]2[C@H](O)[C@@H](O[C@H]3O[C@H](CO)[C@@H](O)[C@H](N)[C@H]3O)[C@H](NC3=NCCC[C@@H]3O)C[C@@H]2N)[C@H](N)C[C@@H]1O [[B], 1N-[(S)(-)-3-hydroxy-3,4,5,6-tetrahydropyridin-2-yl]tobramycin] | 3.1 (≈ 5.49 µM) | 25 (≈ 44.3 µM) | 25 (≈ 44.3 µM) |

Reference: patent US4248865A, “Novel aminoglycoside derivatives” (Shionogi & Co., Ltd., priority 1978, dated 1981)
